The subject of experiment [1] is 3TC-resistant (xxBRU 184V) HIV-1. As to the kind of experiment: HIV-1 RT-assay on supernatant of acutely infected human PBM cells, strain xxBRU 184V. Type of experiment: cell-based. Particulars: for EC90: read-out: RT-Assay 184V EC90. How it is done:
(§1) Human PBM cells (1×10^6 cells/T25 flask) were PHA stimulated for 2 or 3 days, and infected with either a wild type (LAI and xxBRU) or a 3TC-resistant (xxBRU 184V) HIV-1 strain at 100 TCID50, as previously described (27). The culture was kept for 5 days in presence of test compounds at serial 1-log dilutions. Subsequently, human PBM cells were removed from the culture supernatant by centrifugation (10 minutes, 400×g, 4° C.). This clarified supernatant was tested either in the RT-assay, or in the Q-RT-PCR assay.
(§2) Virus particles present in a 1 mL aliquot of culture supernatant were concentrated by high-speed centrifugation (2 hours, 20,000×g, 4° C.). The supernatant was then removed and the virus pellet was dispensed into a 100 μL virus solubilization buffer (VSB: 0.5% Triton X-100; 0.8 M NaCl, 0.5 mM phenylmethylsulfonyl, 20% glycerol, 50 mM Tris.HCl pH 7.8). A 10 μL aliquot of RT-VSB was mixed with 75 μL RT cocktail (60 mM Tris.HCl pH 7.8, 12 mM MgCl2, 6 mM DTT, 6 μg/mL poly (rA)n-oligo (dT)10-12, 1.2 mM dATP, and 80 μCi/mL 3H-TTP) and incubated for 2 hours at 37° C. Subsequently 100 μL of 10% TCA was added, and the total amount of incorporated 3H-TTP was determined.
(§3) HIV-1 present in culture supernatant fluids was quantified by two different methodologies: i) the Q-RT-PCR with read-out in log copies/mL; and ii) the endogenous viral RT assay on cell supernatant with read-out in log counts per minute/mL (CPM/mL). Upon addition of antiviral compounds to the culture media, a dose-related decrease in virus production was observed. Although the two methodologies measured different parameters (viral RNA versus active RT enzyme), results were not markedly different from each other. The HIV-1 Q-RT-PCR results were compared with a previously established cell-based antiviral drug evaluation assay (endogenous HIV-1 RT polymerization activity in cell supematant)(27).

Experiment [2] has as its system HIV-1 LAI (wild type). As to the kind of experiment: HIV-1 RT-assay on supernatant of acutely infected human PBM cells, strain LAI. It counts as cell-based. The conditions noted are these: 5 days, RT activity reduced by 90%. How it is done: as §1, §2, §3
Experiment [3] deals with BVDV (strain NADL). The experiment in a line: BVDV Q-RT-PCR assay in MDBK cells. Type of experiment: cell-based, bovine viral diarrhea virus. Particulars: read-out: BVDV assay Q-PCR EC90. How it is done:
Madin-Darby Bovine Kidney (MDBK) cells were maintained in DMEM/F12 supplemented with 10% heat-inactivated horse serum at 37° C. in a humidified, 5% CO2 atmosphere. Cells were seeded in 96-well plates at 5×10^3 cells/wcll and incubated for 1 hour. BVDV (strain NADL) was used to infect the cells in monolayer at MOI 0.02. After 45 minutes of infection, the viral inoculum was removed and the cells were washed twice. Media or media containing test compound was added to these cells, followed by 24 hour incubation. Cell supernatant fluids were collected, clarified by centrifugation (2 minutes, 3,000 g, room temperature) and viral RNA was prepared (QIAamp Viral RNA mini Kit, Qiagen). Viral RNA was detected in real-time RT-PCR.

The test system of experiment [4] is HBV. The experiment in a line: HBV Q-PCR assay in HepAD38 (AD38) cells. It counts as cell-based, hepatitis B virus. Particulars: for EC90: read-out: HBV assay Q-PCR EC90. How it is done:
The HepAD38 cell line replicates HBV under conditions that can be regulated with tetracycline (12, 15). In the presence of this drug, the cell supernatant is virtually free of viral DNA, but upon the removal of tetracycline from the culture medium, these cells secrete virus-like particle into the supernatant (12). HepAD38 cells were seeded at 5×10^4 cells/well in a 96-well plate in seeding medium (DMEM/F12+10% FBS, 50 μg/mL penicillin, 50 μg/mL streptomycin, 100 μg/mL kanamycin, 400 μg/mL G418, and 0.3 μg/mL tetracycline) and incubated for 2 days at 37° C. in a 5% CO2 humid atmosphere. The seeding media was removed, and cells were washed 3 times with PBS. Cells were then incubated with 200 μL assay medium (DMEM/F12+10% FBS+P/S/K) containing either no compound, test compound, or control drugs at 10 μM. After a 5-day incubation, the cell supernatant was collected and stored at −70° C. until HBV DNA was quantified. HBV DNA was extracted from supernatant using QiaAmp DNA blood Mini kit (Qiagen) and nucleic acids eluted in 200 μL. Viral DNA was detected in Q-PCR. The TaqMan probe and primers were designed using the Primer Express software (Applied Biosystems) and cover highly conserved sequences complementary to the DNA sequences present in HBsAg (24). A total of 5 μL DNA was amplified using reagents and conditions as described by the manufacturer (Applied Biosystems). […]

The mark [5] stands for this setting: Human immunodeficiency virus 1, PBMC, 120 h.
The mark [6] stands for this setting: Bovine viral diarrhea virus isolates and strains, MDBK cells, 24 hour incubation, viral RNA in supernatant.
The mark [7] stands for this setting: AD38 cells, 5-day incubation, HBV DNA in supernatant.
[8] abbreviates: human PBM cells, 5 days, RT activity reduced by 90%.
[9] abbreviates: MDBK cells, 24 hour incubation, viral RNA in supernatant.

Like-named read-outs stand apart in the source and are kept apart here.

Usually EC90 stands for the concentration at which the effect reaches the 90% level. Consider `Cc1cn([C@H]2C[C@H](N=[N+]=[N-])[C@@H](CO)O2)c(=O)[nH]c1=O` [AZT, 3′-azido-3′-deoxythymidine, reference compound], for which the EC90 in experiment [1] (setting [5]) was 0.002 µM; in experiment [2] (setting [5]), 0.02 µM; in experiment [3] (setting [6]), > 200 µM.

In the case of `Nc1ccn([C@@H]2CS[C@H](CO)O2)c(=O)n1` [Compound 3TC, (−)-β-2′,3′-dideoxy-3′-thiacytidine, reference compound], the EC90 in experiment [1] (setting [5]) is 535 µM; in experiment [2] (setting [5]), 0.13 µM; in experiment [4] (setting [7]), 3 µM; in experiment [4] (Hepatitis B virus, HePAD38, 120 h, AD38 cells, 5-day incubation, HBV DNA in supernatant), 2.9 µM; in experiment [3] (setting [6]) it was > 200 µM. Moreover, the “RT-Assay FI, fold increase (EC90 HIV-1184V/EC90 HIV-1xxBRU)” value (shortened to “RT-Assay FI, fold increase”) in experiment [1] is on record as 6,688. Also, the “reduction of release of HBV DNA in the supernatant” value in experiment [4] (10 μM, 5 days, HepAD38 cells) is recorded as ~1.5 log.

Take `Nc1ccn([C@@H]2C=C(F)[C@H](CO)O2)c(=O)n1` [Compound 10, 1-(2,3-Dideoxy-3-fluoro-β-L-glycero-pent-2-eno-furanosyl)cytosine]: the EC90 in experiment [1] (setting [5]) was 572 µM; in experiment [2] (setting [5]) it was 25.3 µM; in experiment [4] (Hepatitis B virus, HePAD38, 120 h), ≥ 100 µM; in experiment [3] (Bovine viral diarrhea virus isolates and strains, MDBK, 24 h), > 200 µM. Moreover, the “RT-Assay FI, fold increase” value in experiment [1] stood at 16.1.

Take `Nc1ccn([C@@H]2C=C(F)[C@H](CO)O2)c(=O)n1` [Compound 23, 1-(2,3-Didcoxy-3-fluoro-β-L-glycero-pent-2-eno-furanosyl)cytosine]: the “RT-Assay FI, fold increase” value in experiment [1] stood at 586. Further, the EC90 in experiment [1] (setting [8]) is 82 µM; in experiment [2], 0.67 µM; in experiment [4] (setting [7]), 1 µM; in experiment [3] (setting [9]) it was > 200 µM.

Consider `Nc1ccn([C@@H]2S[C@H](CO)C=C2F)c(=O)n1` [Compound D-17, (−)-1-[(1S,4R)-2,3-dideoxy-2,3-didehydro-2-fluoro4-thio-β-D-ribofuranosyl]-cytosine], for which the “RT-Assay FI, fold increase” value in experiment [1] is 25.0. In addition, the EC90 in experiment [1] (setting [8]) was 125 µM; in experiment [2], 11.9 µM; in experiment [4] (setting [7]) it was > 100 µM; in experiment [3] (setting [9]), > 200 µM.

In the case of `Nc1nc(=O)n([C@@H]2S[C@H](CO)C=C2F)cc1F` [Compound D-18, (−)-1-[(1S,4R)-2,3-dideoxy-2,3-didehydro-2-fluoro-4-thio-β-D-ribofuranosyl]-5-fluorocytosine], the EC90 in experiment [1] (setting [8]) was > 100 µM; in experiment [2], > 100 µM; in experiment [4] (setting [7]) it was > 100 µM; in experiment [3] (setting [9]), > 200 µM.

As for `Nc1ccn([C@H]2S[C@@H](CO)C=C2F)c(=O)n1` [Compound L-17, (+)-1-[(1S,4R)-2,3-dideoxy-2,3-didehydro-2-fluoro-4-thio-β-L-ribofuranosyl]-cytosine], in experiment [1], the “RT-Assay FI, fold increase” value is recorded as 1,121. Also, the EC90 in experiment [1] (setting [8]) is 1570 µM; in experiment [2] it was 3.3 µM; in experiment [4] (setting [7]) it was > 100 µM; in experiment [3] (setting [9]), > 200 µM.

As for `Nc1nc(=O)n([C@H]2S[C@@H](CO)C=C2F)cc1F` [Compound L-18, (+)-1-[(1S,4R)-2,3-dideoxy-2,3-didehydro-2-fluoro-4-thio-β-L-ribofuranosyl]-5-fluoro-cytosine], the “RT-Assay FI, fold increase” value in experiment [1] is >100. Further, the concentration for an effect of 90% (EC90) in experiment [1] (setting [8]) was > 100 µM; in experiment [2], 2.6 µM; in experiment [4] (setting [7]) it was > 100 µM; in experiment [3] (setting [9]), > 200 µM.

The values are drawn from patent US6949522B2, “β-2′- or 3′-halonucleosides” (Pharmasset, Inc., priority 2001, dated 2005).
